# Calls of active or inactive are those of the source.
# What was measured:
# H9c2 = assay: cells; assay type: functional, cell-based; conditions: Rattus norvegicus, H9c2, Myocardium;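 note: confirmatory concentration-response retest of ultra-high-throughput screening hits for modulation of myocardial damage; cell death induced by hydrogen peroxide oxidative stress; compound pretreatment for 60 min then peroxide exposure for 2 h; potency is for protecting the cells against peroxide damage rather than for killing them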
# Melanocortin receptor 4 = Melanocortin receptor 4 (Homo sapiens, UniProt P32245); assay type: functional, cell-based;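 note: Cell-based assay with luminescence read-out, confirmatory dose-response testing for agonist activity of biased ligands at MC4R; human U2OS cells with tagged receptor and beta-arrestin; potency of agonists that increase receptor coupling to beta-arrestin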
# [1] = target: Cystic fibrosis transmembrane conductance regulator/Golgi-associated PDZ and coiled-coil motif-containing protein (Homo sapiens, UniProt P13569+Q9HD26); assay: CAL PDZ peptide-binding inhibitors, dose response, biochemical, fluorescence polarization, Cerulean-tagged CAL PDZ, cherry-picks (AID 504773)
# [2] = target: Tyrosyl-DNA phosphodiesterase 2 (Homo sapiens, UniProt O95551); assay: human TDP2 enzyme inhibitors, dose response, biochemical, epi absorbance, IC50 (AID 743297)
# [3] = CAL PDZ domain peptide-binding inhibitors, dose response, biochemical, fluorescence polarization, untagged CAL PDZ, dry powder (AID 602255); assay type: functional
# [4] = target: T1, Replicative DNA helicase DnaB (Mycobacterium tuberculosis, UniProt P9WMR3); assay: DnaB intein splicing inhibitors, dose response, biochemical, cell-free fluorescence (AID 449749); assay type: functional
# T1 sequence (P9WMR3 whole entry): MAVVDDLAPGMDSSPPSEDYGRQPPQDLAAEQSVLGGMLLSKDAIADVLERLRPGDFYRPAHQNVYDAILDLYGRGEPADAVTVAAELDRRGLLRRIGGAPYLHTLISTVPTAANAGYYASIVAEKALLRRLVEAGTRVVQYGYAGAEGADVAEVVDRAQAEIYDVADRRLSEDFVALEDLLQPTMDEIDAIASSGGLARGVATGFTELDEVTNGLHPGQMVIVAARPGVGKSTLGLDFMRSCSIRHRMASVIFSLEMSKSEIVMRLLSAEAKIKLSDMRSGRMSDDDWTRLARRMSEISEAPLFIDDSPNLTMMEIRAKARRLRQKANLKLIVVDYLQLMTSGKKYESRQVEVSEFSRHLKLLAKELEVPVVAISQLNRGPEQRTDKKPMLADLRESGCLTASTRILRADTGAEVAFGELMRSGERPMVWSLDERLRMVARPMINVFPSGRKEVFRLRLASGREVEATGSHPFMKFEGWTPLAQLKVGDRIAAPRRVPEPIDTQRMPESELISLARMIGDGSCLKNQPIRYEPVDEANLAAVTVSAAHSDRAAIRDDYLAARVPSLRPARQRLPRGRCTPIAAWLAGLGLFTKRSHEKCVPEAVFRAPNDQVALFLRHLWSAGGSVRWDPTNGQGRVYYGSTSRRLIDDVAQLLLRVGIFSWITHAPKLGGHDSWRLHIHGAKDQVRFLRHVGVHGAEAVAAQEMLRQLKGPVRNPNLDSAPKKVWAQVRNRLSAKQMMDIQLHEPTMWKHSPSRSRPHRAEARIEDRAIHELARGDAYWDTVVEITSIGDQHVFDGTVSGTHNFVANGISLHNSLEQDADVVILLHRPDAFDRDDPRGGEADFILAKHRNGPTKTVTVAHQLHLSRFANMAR
# [5] = Luminescence Cell-Based Dose Response HTS to Identify Inhibitors of 5'UTR Stem-Loop Driven Prion Protein mRNA Translation in H4 Neuroglioblastoma Cells. [Related pubchem assays: 1827 (Project Summary), 1813 (Primary HTS)]; assay type: functional
# [6] = inhibitors of firefly luciferase expression or activity, dose response, H4 neuroglioma cells, luminescence (AID 1990); assay type: functional, cell-based
# Genome polyprotein = Genome polyprotein (dengue virus type 2, UniProt P29990); assay: Dengue-2 NS5 methyltransferase inhibitors, primary screen, biochemical, confirmation dose response (AID 588689); assay type: functional
# Protein RecA = target: T2, Protein RecA (Mycobacterium tuberculosis, UniProt P9WHJ3); assay: Fluorescence Cell-Free Homogeneous Dose Retest to Identify Inhibitors of RecA-Intein Splicing Activity. [Related pubchem assays (depositor defined):AID2097, AID2223, AID489010, AID492950]; assay type: functional
# T2 sequence (P9WHJ3 whole entry): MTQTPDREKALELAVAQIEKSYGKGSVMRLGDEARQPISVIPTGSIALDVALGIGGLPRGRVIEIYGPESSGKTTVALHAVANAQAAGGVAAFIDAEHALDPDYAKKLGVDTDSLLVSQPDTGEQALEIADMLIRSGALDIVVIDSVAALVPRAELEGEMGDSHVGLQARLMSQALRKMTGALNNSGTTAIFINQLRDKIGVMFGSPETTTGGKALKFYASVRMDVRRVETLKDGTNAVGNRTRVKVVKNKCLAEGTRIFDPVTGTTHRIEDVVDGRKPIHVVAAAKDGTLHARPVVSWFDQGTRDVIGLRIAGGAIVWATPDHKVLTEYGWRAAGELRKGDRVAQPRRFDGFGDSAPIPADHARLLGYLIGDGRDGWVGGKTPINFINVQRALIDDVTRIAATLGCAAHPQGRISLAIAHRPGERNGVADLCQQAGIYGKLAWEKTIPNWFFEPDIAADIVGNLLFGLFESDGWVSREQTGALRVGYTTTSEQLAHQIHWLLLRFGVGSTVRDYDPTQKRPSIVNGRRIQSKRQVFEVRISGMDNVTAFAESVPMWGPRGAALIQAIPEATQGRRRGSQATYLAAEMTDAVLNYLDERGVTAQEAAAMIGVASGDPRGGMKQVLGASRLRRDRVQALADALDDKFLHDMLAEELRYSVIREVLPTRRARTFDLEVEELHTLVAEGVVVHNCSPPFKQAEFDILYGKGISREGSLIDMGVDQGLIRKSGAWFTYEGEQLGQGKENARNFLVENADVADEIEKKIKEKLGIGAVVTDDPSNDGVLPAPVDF
# [7] = target: T3, Zinc finger protein mex-5 (Caenorhabditis elegans, UniProt Q9XUB2); assay: MEX-5/TCR-2 RNA interaction inhibitors, dose response, biochemical, C. elegans, fluorescence polarization (AID 1960)
# T3 sequence (Q9XUB2 whole entry): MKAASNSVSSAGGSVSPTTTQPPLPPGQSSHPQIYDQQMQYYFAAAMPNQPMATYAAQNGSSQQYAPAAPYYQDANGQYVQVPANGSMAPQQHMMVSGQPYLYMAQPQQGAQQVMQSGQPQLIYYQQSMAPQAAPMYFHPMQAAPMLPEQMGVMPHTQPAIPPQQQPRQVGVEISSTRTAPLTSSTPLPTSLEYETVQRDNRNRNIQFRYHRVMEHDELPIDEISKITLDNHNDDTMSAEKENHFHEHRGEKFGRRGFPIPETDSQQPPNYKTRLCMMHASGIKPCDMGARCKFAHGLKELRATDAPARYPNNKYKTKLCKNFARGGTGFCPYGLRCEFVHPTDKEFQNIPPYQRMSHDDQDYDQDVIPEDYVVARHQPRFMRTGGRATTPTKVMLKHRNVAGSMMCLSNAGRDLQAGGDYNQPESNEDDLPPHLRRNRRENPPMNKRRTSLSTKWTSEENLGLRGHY
# [8] = target: Glucose-6-phosphate 1-dehydrogenase (Homo sapiens, UniProt P11413); assay: human G6PD enzyme inhibitors, dose response, selectivity assay for P. falciparum G6PD inhibitor project, biochemical, fluorescence (AID 504792); assay type: functional
# [9] = inhibitors of SNCA 5'UTR-driven reporter translation, confirmation, H4 neuroglioma cells, luminescence (AID 1988); assay type: functional, cell-based
# [10] = target: T4, RNA-binding protein pos-1 (Caenorhabditis elegans, UniProt G5EF15); assay: inhibitors of POS-1/mex-3 RNA binding, dose response, biochemical, fluorescence polarization (AID 1964);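 note: purified POS-1 fused to maltose binding protein made in E. coli; potency of compounds blocking POS-1 binding to fluorescent RNA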
# T4 sequence (G5EF15 whole entry): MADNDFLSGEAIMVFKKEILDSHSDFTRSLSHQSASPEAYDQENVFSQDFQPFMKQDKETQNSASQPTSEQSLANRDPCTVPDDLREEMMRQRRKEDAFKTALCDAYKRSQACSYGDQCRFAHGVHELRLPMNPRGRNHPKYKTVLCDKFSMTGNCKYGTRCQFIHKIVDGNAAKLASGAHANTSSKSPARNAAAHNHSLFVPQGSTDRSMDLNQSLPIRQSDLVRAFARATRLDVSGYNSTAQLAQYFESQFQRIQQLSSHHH
# Vero = Vero cell cytotoxicity, cytotoxicity control for flavivirus capping enzyme inhibitors (AID 588742); assay type: functional; conditions: Chlorocebus sabaeus
# [11] = target: T5, Apoptotic protease-activating factor 1 (Homo sapiens, UniProt O14727); assay: SAR analysis of small molecule Activators of Apaf-1 in a Fluorescent assay.; assay type: functional; conditions: read-out: EC50_Mean;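 note: caspase-3 cleavage of fluorogenic Rh110 DEVD substrate downstream of apoptosome activation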
# T5 sequence (O14727 whole entry): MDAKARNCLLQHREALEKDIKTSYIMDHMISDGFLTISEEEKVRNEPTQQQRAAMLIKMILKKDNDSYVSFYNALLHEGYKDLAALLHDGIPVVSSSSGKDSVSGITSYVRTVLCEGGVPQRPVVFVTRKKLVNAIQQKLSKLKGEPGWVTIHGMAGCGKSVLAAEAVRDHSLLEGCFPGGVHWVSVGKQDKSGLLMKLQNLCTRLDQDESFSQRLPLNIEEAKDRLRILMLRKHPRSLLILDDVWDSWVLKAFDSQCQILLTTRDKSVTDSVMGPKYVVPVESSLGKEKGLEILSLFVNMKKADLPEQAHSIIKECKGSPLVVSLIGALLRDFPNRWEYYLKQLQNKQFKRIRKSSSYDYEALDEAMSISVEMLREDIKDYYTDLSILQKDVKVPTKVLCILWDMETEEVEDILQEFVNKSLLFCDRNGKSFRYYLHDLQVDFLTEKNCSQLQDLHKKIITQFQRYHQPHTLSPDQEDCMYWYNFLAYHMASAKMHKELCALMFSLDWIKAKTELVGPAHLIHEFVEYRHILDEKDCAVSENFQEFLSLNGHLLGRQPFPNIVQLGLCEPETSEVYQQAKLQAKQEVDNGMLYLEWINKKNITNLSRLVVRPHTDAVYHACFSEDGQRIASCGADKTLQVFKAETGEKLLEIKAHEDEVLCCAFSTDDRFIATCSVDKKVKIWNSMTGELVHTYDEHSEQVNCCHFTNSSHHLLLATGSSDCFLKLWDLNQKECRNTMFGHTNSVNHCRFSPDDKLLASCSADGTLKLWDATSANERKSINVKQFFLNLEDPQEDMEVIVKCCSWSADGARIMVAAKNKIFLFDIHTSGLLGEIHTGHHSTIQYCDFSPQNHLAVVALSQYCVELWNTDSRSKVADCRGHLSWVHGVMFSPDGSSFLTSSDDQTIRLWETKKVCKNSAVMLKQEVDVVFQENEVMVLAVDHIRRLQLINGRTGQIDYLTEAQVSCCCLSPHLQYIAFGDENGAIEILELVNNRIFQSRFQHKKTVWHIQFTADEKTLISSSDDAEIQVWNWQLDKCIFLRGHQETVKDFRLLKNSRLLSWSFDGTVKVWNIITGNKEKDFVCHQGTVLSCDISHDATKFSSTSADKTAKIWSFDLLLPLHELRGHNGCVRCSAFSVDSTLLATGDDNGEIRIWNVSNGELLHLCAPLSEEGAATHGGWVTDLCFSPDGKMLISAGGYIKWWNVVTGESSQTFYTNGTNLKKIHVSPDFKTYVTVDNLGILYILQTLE
# [12] = target: T6, High affinity choline transporter 1 (Homo sapiens, UniProt Q9GZV3); assay: CHT inhibitors, dose response, cell-based, 10-point CRC, membrane potential dye (AID 588401); assay type: functional;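 note: membrane potential dye fluorescence of choline-evoked depolarization via CHT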
# T6 sequence (Q9GZV3 whole entry): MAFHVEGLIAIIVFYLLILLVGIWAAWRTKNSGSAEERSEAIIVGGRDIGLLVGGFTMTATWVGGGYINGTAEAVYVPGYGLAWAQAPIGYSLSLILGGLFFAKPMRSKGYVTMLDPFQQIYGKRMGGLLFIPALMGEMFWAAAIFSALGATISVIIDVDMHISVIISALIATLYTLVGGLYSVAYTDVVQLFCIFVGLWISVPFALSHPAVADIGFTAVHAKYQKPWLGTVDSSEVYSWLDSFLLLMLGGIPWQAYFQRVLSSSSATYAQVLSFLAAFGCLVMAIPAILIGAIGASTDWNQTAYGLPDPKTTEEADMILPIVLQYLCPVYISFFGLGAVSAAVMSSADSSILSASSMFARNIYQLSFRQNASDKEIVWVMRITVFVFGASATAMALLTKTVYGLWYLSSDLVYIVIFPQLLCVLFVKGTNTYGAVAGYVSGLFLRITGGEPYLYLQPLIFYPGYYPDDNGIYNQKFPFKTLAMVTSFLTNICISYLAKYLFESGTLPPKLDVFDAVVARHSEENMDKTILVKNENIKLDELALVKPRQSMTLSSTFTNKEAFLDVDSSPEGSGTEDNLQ
# [13] = target: T6, High affinity choline transporter 1; assay: CHT inhibitors, dose response, cell-based, 5-point CRC, membrane potential dye (AID 504840); assay type: functional
# Albumin = Albumin (Bos taurus, UniProt P02769); assay: Counterscreen for inhibitors of T-cell receptor (TCR)-CD3 interaction: Fluorescence-based biochemical high throughput dose response assay to identify inhibitors of T-cell receptor (TCR)-CD3 interaction using a TAMRA-labeled BSA probe.; assay type: functional
# [14] = target: T7, Small ubiquitin-related modifier 1 (Homo sapiens, UniProt P63165); assay: inhibitors of SUMO1 peptide binding, dose response, biochemical, fluorescence polarization, uHTS hits (AID 624382); assay type: functional; conditions: read-out: IC50_Mean
# [15] = target: DNA (cytosine-5)-methyltransferase 1 (Homo sapiens, UniProt P26358); assay: DNMT1 methyltransferase inhibitors, confirmation, biochemical, fluorescent molecular beacon (AID 602386); assay type: functional
# [16] = target: T7, Small ubiquitin-related modifier 1; assay: inhibitors of SUMO1 partner interactions, dose response, biochemical, FRET (AID 624383); assay type: functional; conditions: read-out: IC50_Mean
# T7 sequence (P63165 whole entry): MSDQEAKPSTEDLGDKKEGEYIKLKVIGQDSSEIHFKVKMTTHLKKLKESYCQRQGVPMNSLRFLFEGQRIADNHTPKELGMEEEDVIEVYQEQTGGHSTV
# Chain of Tyrosyl-DNA phosphodiesterase 2 (O95551 whole entry, the tested form may be a part): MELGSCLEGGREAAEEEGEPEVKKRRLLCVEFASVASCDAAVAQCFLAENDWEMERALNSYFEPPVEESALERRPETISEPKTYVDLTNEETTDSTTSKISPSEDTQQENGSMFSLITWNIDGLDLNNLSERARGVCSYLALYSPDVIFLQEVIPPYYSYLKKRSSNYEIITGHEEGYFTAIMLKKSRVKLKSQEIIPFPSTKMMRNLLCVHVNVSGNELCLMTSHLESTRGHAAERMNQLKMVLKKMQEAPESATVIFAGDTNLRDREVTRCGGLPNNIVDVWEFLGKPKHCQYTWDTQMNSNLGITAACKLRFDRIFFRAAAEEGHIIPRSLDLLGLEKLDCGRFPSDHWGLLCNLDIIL
# Chain of Albumin (P02769 whole entry): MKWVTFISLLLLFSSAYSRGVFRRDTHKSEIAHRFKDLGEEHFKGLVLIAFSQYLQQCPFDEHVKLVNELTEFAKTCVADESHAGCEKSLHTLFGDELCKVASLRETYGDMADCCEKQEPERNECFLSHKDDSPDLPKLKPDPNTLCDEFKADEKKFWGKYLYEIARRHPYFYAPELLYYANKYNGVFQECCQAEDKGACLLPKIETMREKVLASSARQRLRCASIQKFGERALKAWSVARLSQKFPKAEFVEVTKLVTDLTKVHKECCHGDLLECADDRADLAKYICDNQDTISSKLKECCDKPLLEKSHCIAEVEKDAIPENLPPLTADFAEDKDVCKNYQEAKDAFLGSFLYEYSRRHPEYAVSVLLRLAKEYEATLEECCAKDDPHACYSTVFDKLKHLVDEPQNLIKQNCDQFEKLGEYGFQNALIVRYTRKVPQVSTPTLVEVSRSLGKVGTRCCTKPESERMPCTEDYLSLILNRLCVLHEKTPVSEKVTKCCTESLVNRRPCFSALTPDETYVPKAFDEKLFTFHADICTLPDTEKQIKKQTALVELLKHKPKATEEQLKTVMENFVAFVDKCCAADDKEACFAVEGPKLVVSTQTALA
# Chain of Cystic fibrosis transmembrane conductance regulator/Golgi-associated PDZ and coiled-coil motif-containing protein (P13569 whole entry, other chains not shown): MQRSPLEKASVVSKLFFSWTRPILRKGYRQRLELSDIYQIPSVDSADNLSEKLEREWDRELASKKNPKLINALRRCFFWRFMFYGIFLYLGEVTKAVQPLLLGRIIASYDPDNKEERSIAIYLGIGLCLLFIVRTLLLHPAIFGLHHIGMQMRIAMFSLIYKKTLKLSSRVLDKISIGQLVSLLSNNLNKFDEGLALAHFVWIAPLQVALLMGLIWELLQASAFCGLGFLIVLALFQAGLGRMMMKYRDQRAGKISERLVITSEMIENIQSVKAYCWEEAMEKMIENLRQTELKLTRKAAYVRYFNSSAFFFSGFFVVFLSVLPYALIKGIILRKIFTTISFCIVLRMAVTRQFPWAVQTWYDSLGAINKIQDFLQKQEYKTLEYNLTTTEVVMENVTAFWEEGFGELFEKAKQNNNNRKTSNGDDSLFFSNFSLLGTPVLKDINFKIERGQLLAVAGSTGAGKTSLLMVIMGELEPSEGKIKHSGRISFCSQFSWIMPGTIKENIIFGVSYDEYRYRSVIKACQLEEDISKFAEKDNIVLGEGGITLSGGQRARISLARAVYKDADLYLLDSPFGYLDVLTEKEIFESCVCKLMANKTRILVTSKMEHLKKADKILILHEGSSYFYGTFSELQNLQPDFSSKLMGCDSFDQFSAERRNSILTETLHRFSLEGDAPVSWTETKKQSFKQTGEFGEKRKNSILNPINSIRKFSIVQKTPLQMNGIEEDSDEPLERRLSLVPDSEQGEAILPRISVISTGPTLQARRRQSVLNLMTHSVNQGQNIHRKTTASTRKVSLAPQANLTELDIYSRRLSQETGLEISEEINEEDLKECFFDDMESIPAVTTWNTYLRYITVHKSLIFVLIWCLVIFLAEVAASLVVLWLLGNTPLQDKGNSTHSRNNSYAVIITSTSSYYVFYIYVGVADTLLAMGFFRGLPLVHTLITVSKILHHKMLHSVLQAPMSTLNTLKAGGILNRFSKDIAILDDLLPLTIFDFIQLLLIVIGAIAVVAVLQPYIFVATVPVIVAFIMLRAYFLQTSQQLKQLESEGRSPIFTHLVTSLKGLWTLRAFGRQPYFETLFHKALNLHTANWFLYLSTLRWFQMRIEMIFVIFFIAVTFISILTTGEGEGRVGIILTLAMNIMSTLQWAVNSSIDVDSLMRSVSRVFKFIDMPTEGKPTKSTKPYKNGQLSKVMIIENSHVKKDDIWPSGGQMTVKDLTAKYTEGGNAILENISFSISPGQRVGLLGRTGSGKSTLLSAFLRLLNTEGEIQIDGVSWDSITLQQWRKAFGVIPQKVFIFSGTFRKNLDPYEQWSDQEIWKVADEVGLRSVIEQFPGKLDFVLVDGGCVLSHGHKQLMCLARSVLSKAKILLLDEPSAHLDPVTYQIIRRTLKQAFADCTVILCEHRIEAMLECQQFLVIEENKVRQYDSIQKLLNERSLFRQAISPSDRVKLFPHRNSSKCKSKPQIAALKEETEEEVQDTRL
# Chain of DNA (cytosine-5)-methyltransferase 1 (P26358 whole entry): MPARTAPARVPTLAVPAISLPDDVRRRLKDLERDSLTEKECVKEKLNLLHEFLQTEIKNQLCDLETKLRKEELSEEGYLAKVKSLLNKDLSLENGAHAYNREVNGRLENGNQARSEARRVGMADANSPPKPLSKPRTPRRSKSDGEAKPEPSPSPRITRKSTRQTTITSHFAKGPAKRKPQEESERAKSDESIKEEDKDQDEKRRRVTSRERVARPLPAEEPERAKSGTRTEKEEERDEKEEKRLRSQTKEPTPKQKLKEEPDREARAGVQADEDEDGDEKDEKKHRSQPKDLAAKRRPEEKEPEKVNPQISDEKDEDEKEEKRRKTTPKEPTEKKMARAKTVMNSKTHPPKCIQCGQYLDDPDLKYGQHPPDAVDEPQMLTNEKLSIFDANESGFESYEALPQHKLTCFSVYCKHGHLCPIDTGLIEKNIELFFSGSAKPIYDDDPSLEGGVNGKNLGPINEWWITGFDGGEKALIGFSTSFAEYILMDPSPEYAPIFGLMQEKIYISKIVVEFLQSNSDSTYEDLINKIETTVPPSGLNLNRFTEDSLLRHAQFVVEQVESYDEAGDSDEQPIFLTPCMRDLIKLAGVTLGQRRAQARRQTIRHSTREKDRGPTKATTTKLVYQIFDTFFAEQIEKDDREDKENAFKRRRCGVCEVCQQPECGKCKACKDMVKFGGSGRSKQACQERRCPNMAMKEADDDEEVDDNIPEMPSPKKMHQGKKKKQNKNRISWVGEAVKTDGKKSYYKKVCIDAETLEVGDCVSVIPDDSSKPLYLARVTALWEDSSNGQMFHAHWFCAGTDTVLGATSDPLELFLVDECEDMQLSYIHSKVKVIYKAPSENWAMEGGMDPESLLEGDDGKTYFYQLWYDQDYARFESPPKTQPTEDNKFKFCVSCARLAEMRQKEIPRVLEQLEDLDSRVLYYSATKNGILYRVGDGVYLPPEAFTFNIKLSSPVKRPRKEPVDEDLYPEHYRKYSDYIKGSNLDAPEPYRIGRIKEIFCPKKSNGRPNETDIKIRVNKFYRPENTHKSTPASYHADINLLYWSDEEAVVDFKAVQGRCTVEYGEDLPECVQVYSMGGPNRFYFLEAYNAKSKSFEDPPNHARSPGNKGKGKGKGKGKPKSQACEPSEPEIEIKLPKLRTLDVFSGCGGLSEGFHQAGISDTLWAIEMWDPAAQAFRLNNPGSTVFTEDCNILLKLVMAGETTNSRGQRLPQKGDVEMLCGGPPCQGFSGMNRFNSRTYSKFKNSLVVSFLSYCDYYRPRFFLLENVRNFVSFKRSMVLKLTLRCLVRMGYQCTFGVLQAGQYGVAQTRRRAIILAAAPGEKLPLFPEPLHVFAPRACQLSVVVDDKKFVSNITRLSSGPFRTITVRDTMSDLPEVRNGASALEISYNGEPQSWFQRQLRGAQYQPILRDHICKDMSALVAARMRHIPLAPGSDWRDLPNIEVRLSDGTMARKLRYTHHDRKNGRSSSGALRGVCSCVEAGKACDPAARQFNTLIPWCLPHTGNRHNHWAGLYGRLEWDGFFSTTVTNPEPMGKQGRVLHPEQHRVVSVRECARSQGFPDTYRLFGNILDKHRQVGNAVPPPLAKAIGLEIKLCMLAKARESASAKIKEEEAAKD
# Chain of Glucose-6-phosphate 1-dehydrogenase (P11413 whole entry): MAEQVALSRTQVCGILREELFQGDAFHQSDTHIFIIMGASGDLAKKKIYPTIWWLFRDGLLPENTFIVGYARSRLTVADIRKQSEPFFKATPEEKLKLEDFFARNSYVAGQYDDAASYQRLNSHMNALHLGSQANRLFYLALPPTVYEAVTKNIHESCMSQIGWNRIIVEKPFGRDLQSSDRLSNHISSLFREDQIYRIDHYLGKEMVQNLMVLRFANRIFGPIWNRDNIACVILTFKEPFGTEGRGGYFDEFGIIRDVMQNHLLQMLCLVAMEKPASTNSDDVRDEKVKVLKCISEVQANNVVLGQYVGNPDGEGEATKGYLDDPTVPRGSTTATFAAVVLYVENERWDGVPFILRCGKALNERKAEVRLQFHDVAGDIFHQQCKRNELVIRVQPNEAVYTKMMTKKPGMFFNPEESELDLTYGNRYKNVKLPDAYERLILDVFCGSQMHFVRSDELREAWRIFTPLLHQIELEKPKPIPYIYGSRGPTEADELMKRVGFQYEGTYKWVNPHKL
# Chain of Melanocortin receptor 4 (P32245 whole entry): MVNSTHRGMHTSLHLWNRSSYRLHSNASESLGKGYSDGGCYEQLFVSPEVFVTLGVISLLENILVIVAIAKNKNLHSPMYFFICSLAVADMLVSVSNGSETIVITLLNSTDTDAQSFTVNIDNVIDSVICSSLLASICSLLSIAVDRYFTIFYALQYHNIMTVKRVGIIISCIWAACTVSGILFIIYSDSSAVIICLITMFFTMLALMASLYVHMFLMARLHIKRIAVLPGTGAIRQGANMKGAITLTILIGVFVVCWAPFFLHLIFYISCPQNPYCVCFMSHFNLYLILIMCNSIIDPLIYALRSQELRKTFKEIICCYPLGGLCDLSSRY
structure (smiles),measurement,setting,value
COc1cc(-c2cc(NC=O)c3ncc(-c4ccc(C(C)=O)cc4)n3c2)cc(OC)c1OC,IC50,H9c2,> 79 µM (inactive)
same,EC50,Melanocortin receptor 4,> 89.2 µM (inactive)
CCOc1ccc(S(=O)(=O)Nc2cc(SCC(=O)O)c(O)c3ccccc23)cc1,AC50,[1],36.2 µM (active)
same,IC50,[2],68.8 µM (inactive)
same,AC50,[3],54.4 µM (active)
same,AC50,[4],20.7 µM (active)
same,EC50,[5],> 120 µM (not active)
same,EC50,[6],> 120 µM (not active)
same,IC50,Genome polyprotein,7.49 µM (active)
same,EC50,Protein RecA,4.23 µM (active)
same,EC50,[7],11.9 µM (inconclusive)
same,IC50,[8],28.4 µM (inactive)
same,EC50,[9],> 120 µM (not active)
same,EC50,[10],78.8 µM (active)
same,CC50,Vero,26.6 µM (active)
CCOc1ccccc1NC(=O)CCS(=O)(=O)c1ccc2c(c1)OCCO2,EC50,[11],> 100 µM (inactive)
O=C(Cc1ccc(-n2c(=O)c3ccccc3n(Cc3ccccc3F)c2=O)cc1)NCC1CCCO1 (centres undefined),IC50,[12],3.98 µM (active)
same,IC50,[13],7.14 µM (active)
c1coc(-c2ccc3nncn3c2)c1,IC50,Albumin,> 94.2 µM (inactive)
same,IC50,[14],> 66.6 µM (inactive)
same,IC50,[15],4.58 µM (active)
same,IC50,[16],7.19 µM (active)
COc1ccc(-c2nc(C=O)cs2)cc1,IC50,[12],3.57 µM (active)
same,IC50,[13],2.88 µM (active)
